Earlier results, collected in patent US9662344B2, “Carnitine retention” (The University of Nottingham, priority 2003, dated 2017).
Where two headings read alike, the source gives them in different places.

Key:
[1] = system: skeletal muscle carnitine uptake; conditions: isolated cells (Georges et al., 2000)
[2] = not given; remark: listed apart in the source
[3] = oral doses of L-carnitine between 2 and 6 g

plasma carnitine concentration of maximum renal reabsorption (above this the excess is excreted in urine): 60 to 100 µmol/L
bioavailability [3]: less than 20%
time of peak plasma concentrations after ingestion [3]: ~3 h
Km [1]: 6.4 µM
resting skeletal muscle carnitine content ([2]; 6 g every day for up to 2 weeks (Vukovich et al 1994)): no significant increase
SMILES: C[N+](C)(C)C[C@H](O)CC(=O)[O-] [L-carnitine]
VO2 max ([2]; competitive walkers, oral 4 g every day for 2 weeks (Marconi et al 1985)): slight but significant increase
effect on VO2 max, RQ, maximal exercise, fatty acid utilisation, glucose utilisation, lactate, perceived exertion, or heart rate ([2]; oral 3-5 g L-carnitine over 5-28 days): no effect
VO2 max ([2]; single dose 2 g orally an hour before exercise (Vecchiet et al 1990)): increase
